In patent publication US20250270213A1, “PI3Ka INHIBITORS” (Synnovation Therapeutics, Inc., priority 2022, published 2025) one finds IC50 data, which are given here for 26 compounds.

Each structure is given as a SMILES string.

In this experiment the test system is T47D (PIK3CA H1047R) cells. As to the kind of experiment: pS473 AKT assay with 2.5% FBS, T47D cells. The experiment is classed as cell-based. The conditions noted are these: Homo sapiens, pSer473 AKT, DMEM with 2.5% FBS, 2 h treatment, read-out: T47D_IC50. The gist of the method: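 In-cell chemiluminescent ELISA of AKT Ser473 phosphorylation, using anti-pSer473 primary and HRP secondary antibodies on fixed cells. T47D (PIK3CA H1047R) cells had 2 h of compound treatment in DMEM containing 2.5% FBS; IC50 derived from dose-response.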

Consider `Cc1cc(C(C)Nc2ccc(Cl)nc2-c2cncnc2)c2c(c1)c(=O)n(C)c1c2cnn1CCO` (centres unmarked) [Example 252, 9-(1-((6-chloro-2-(pyrimidin-5-yl)pyridin-3-yl)amino)ethyl)-3-(2-hydroxyethyl)-4,7-dimethyl-3,4-dihydro-5H-pyrazolo[3,4-c]isoquinolin-5-one], for which the IC50 is less than 1000 nM.
`CNC(=O)c1ccc(-c2nc(Cl)ccc2NC(C)c2cc(C)cc3c(=O)n(C)c4c(cnn4CCO)c23)cn1` (centres unmarked) [Example 253, 5-[6-Chloro-3-[1-[3-(2-hydroxyethyl)-4,7-dimethyl-5-oxo-pyrazolo[3,4-c]isoquinolin-9-yl]ethylamino]-2-pyridyl]-N-methyl-pyridine-2-carboxamide]: the IC50 is less than 1000 nM.
With `Cc1cc(C(C)Nc2ccc(Cl)nc2-c2ccc(=O)n(C)c2)c2c(c1)c(=O)n(C)c1c2cnn1CCO` (centres unmarked) [Example 254, 9-[1-[[6-chloro-2-(1-methyl-6-oxo-3-pyridyl)-3-pyridyl]amino]ethyl]-3-(2-hydroxyethyl)-4,7-dimethyl-pyrazolo[3,4-c]isoquinolin-5-one], the IC50 was less than 1000 nM.
With `Cc1cc(C(C)Nc2ccc(Cl)nc2-c2ccn(C)c(=O)c2)c2c(c1)c(=O)n(C)c1c2cnn1CCO` (centres unmarked) [Example 255, 9-[1-[[6-chloro-2-(1-methyl-2-oxo-4-pyridyl)-3-pyridyl]amino]ethyl]-3-(2-hydroxyethyl)-4,7-dimethyl-pyrazolo[3,4-c]isoquinolin-5-one], the IC50 was less than 1000 nM.
On to `COc1cc(-c2nc(Cl)ccc2NC(C)c2cc(C)cc3c(=O)n(C)c4c(cnn4CCO)c23)ccn1` (centres unmarked) [Example 256, 9-[1-[[6-chloro-2-(2-methoxy-4-pyridyl)-3-pyridyl]amino]ethyl]-3-(2-hydroxyethyl)-4,7-dimethyl-pyrazolo[3,4-c]isoquinolin-5-one], for which the IC50 is less than 1000 nM.
For `Cc1cc(C(C)Nc2ccc(Cl)nc2C2CCN(C)CC2)c2c(c1)c(=O)n(C)c1c2cnn1CCO` (centres unmarked) [Example 257, 9-[1-[[6-Chloro-2-(1-methyl-4-piperidyl)-3-pyridyl]amino]ethyl]-3-(2-hydroxyethyl)-4,7-dimethyl-pyrazolo[3,4-c]isoquinolin-5-one], the IC50 is less than 1000 nM.
For `CC(=O)N1CCC(c2nc(Cl)ccc2NC(C)c2cc(C)cc3c(=O)n(C)c4c(cnn4CCO)c23)CC1` (centres unmarked) [Example 258, 9-[1-[[2-(1-Acetyl-4-piperidyl)-6-chloro-3-pyridyl]amino]ethyl]-3-(2-hydroxyethyl)-4,7-dimethyl-pyrazolo[3,4-c]isoquinolin-5-one] the value was less than 1000 nM; for `Cc1cc(C(C)Nc2ccc(Cl)nc2-c2ncn(C)n2)c2c(c1)c(=O)n(CC(F)F)c1c2cnn1CCO` (centres unmarked) [Example 259, 9-[1-[[6-Chloro-2-(1-methyl-1,2,4-triazol-3-yl)-3-pyridyl]amino]ethyl]-4-(2,2-difluoroethyl)-3-(2-hydroxyethyl)-7-methyl-pyrazolo[3,4-c]isoquinolin-5-one], less than 1000 nM; for `CNC(=O)c1ccc(-c2nc(Cl)ccc2NC(C)c2cc(C)cc3c(=O)n(CC(F)F)c4c(cnn4CCO)c23)cn1` (centres unmarked) [Example 260, 5-[6-Chloro-3-[1-[4-(2,2-difluoroethyl)-3-(2-hydroxyethyl)-7-methyl-5-oxo-pyrazolo[3,4-c]isoquinolin-9-yl]ethylamino]-2-pyridyl]-N-methyl-pyridine-2-carboxamide], less than 1000 nM.
As to `CCn1c(=O)c2cc(C)cc(C(C)Nc3ccc(Cl)nc3-c3ncn(C)n3)c2c2cnn(CCO)c21` (centres unmarked) [Example 261, 9-[1-[[6-Chloro-2-(1-methyl-1,2,4-triazol-3-yl)-3-pyridyl]amino]ethyl]-4-ethyl-3-(2-hydroxyethyl)-7-methyl-pyrazolo[3,4-c]isoquinolin-5-one], the IC50 was less than 1000 nM.
For `CCn1c(=O)c2cc(C)cc(C(C)Nc3ccc(Cl)nc3N3CCOCC3)c2c2cnn(CCO)c21` (centres unmarked) [Example 262, 9-[1-[(6-Chloro-2-morpholino-3-pyridyl)amino]ethyl]-4-ethyl-3-(2-hydroxyethyl)-7-methyl-pyrazolo[3,4-c]isoquinolin-5-one] the value was less than 1000 nM; for `Cc1cc(C(C)Nc2ccc(Cl)nc2-c2cnn(C)c2)c2c(c1)c(=O)n(C)c1c2cnn1CCN1CCOCC1` (centres unmarked) [Example 263, 9-[1-[[6-Chloro-2-(1-methylpyrazol-4-yl)-3-pyridyl]amino]ethyl]-4,7-dimethyl-3-(2-morpholinoethyl)pyrazolo[3,4-c]isoquinolin-5-one], less than 1000 nM; for `Cc1cc(C(C)Nc2ccc(Cl)nc2-c2ccncc2F)c2c(c1)c(=O)n(C)c1c2cnn1CCN1CCOCC1` (centres unmarked) [Example 264, 9-(1-((6-chloro-3′-fluoro-[2,4′-bipyridin]-3-yl)amino)ethyl)-4,7-dimethyl-3-(2-morpholinoethyl)-3,4-dihydro-5H-pyrazolo[3,4-c]isoquinolin-5-one], less than 1000 nM.
`Cc1cc(C(C)Nc2ccc(Cl)nc2-c2ccncc2F)c2c(c1)c(=O)n(C)c1c2cnn1CCN1CCN(C)CC1` (centres unmarked) [Example 265, 9-(1-((6-chloro-3′-fluoro-[2,4′-bipyridin]-3-yl)amino)ethyl)-4,7-dimethyl-3-(2-(4-methylpiperazin-1-yl)ethyl)-3,4-dihydro-5H-pyrazolo[3,4-c]isoquinolin-5-one]: the IC50 was less than 1000 nM.
As to `CNC(=O)c1ccc(-c2nc(Cl)ccc2NC(C)c2cc(C)cc3c(=O)n(C)c4c(cnn4CCN4CCOCC4)c23)cc1F` (centres unmarked) [Example 266, 4-(6-chloro-3-((1-(4,7-dimethyl-3-(2-morpholinoethyl)-5-oxo-4,5-dihydro-3H-pyrazolo[3,4-c]isoquinolin-9-yl)ethyl)amino)pyridin-2-yl)-2-fluoro-N-methylbenzamide], the IC50 was less than 1000 nM.
Next, `CNC(=O)c1ccc(-c2nc(Cl)ccc2NC(C)c2cc(C)cc3c(=O)n(C)c4c(cnn4CCN4CCN(C)CC4)c23)cc1F` (centres unmarked) [Example 267, 4-(6-chloro-3-((1-(4,7-dimethyl-3-(2-(4-methylpiperazin-1-yl)ethyl)-5-oxo-4,5-dihydro-3H-pyrazolo[3,4-c]isoquinolin-9-yl)ethyl)amino)pyridin-2-yl)-2-fluoro-N-methylbenzamide]: less than 1000 nM; `Cc1cc(C(C)Nc2ccc(Cl)nc2-c2ncn(C)n2)c2c(c1)c(=O)n(CC(F)F)c1c2cnn1CCN1CCn2ncnc2C1` (centres unmarked) [Example 268, 9-(1-((6-chloro-2-(1-methyl-1H-1,2,4-triazol-3-yl)pyridin-3-yl)amino)ethyl)-4-(2,2-difluoroethyl)-3-(2-(5,6-dihydro-[1,2,4]triazolo[1,5-a]pyrazin-7(8H)-yl)ethyl)-7-methyl-3,4-dihydro-5H-pyrazolo[3,4-c]isoquinolin-5-one]: less than 1000 nM.
As for `CCn1c(=O)c2cc(C)cc(C(C)Nc3ccc(Cl)nc3-c3ncn(C)n3)c2c2cnn(-c3ccccn3)c21` (centres unmarked) [Example 269, 9-[1-[[6-Chloro-2-(1-methyl-1,2,4-triazol-3-yl)-3-pyridyl]amino]ethyl]-4-ethyl-7-methyl-3-(2-pyridyl)pyrazolo[3,4-c]isoquinolin-5-one], the IC50 was less than 1000 nM.
On to `CCn1c(=O)c2cc(C)cc(C(C)Nc3ccc(Cl)nc3N3CCOCC3)c2c2cnn(-c3ccccn3)c21` (centres unmarked) [Example 270, 9-(1-((6-chloro-2-morpholinopyridin-3-yl)amino)ethyl)-4-ethyl-7-methyl-3-(pyridin-2-yl)-3,4-dihydro-5H-pyrazolo[3,4-c]isoquinolin-5-one], for which the IC50 is less than 1000 nM.
As to `CCn1c(=O)c2cc(C)cc(C(C)Nc3ccc(Cl)nc3-c3ccc(C(=O)NC)nc3)c2c2cnn(-c3ccccn3)c21` (centres unmarked) [Example 271, 6-chloro-3-((1-(4-ethyl-7-methyl-5-oxo-3-(pyridin-2-yl)-4,5-dihydro-3H-pyrazolo[3,4-c]isoquinolin-9-yl)ethyl)amino)-N-methyl-[2,3′-bipyridine]-6′-carboxamide], the IC50 is less than 1000 nM.
In the case of `Cc1cc(C(C)Nc2ccc(Cl)nc2-c2noc(=O)[nH]2)c2c(c1)c(=O)n(C)c1c2cnn1-c1ccccn1` (centres unmarked) [Example 272, 3-(6-chloro-3-((1-(4,7-dimethyl-5-oxo-3-(pyridin-2-yl)-4,5-dihydro-3H-pyrazolo[3,4-c]isoquinolin-9-yl)ethyl)amino)pyridin-2-yl)-1,2,4-oxadiazol-5(4H)-one], the IC50 was less than 1000 nM.
`Cc1cc(C(C)Nc2ccc(Cl)nc2-c2cnn(C)c2)c2c(c1)c(=O)n(C)c1c2cnn1-c1ccccn1` (centres unmarked) [Example 273, 9-(1-((6-chloro-2-(1-methyl-1H-pyrazol-4-yl)pyridin-3-yl)amino)ethyl)-4,7-dimethyl-3-(pyridin-2-yl)-3,4-dihydro-5H-pyrazolo[3,4-c]isoquinolin-5-one]: the IC50 was less than 1000 nM.
Regarding `CCn1c(=O)c2cc(C)cc(C(C)Nc3ccc(Cl)nc3-c3ncn(C)n3)c2c2cnn(-c3cccnc3)c21` (centres unmarked) [Example 274, 9-[1-[[6-Chloro-2-(1-methyl-1,2,4-triazol-3-yl)-3-pyridyl]amino]ethyl]-4-ethyl-7-methyl-3-(3-pyridyl)pyrazolo[3,4-c]isoquinolin-5-one], the IC50 was less than 1000 nM.
With `Cc1cc(C(C)Nc2ccc(Cl)nc2-c2cnn(C)c2)c2c(c1)c(=O)n(C)c1c2cnn1Cc1ccccn1` (centres unmarked) [Example 275, 9-[1-[[6-Chloro-2-(1-methylpyrazol-4-yl)-3-pyridyl]amino]ethyl]-4,7-dimethyl-3-(2-pyridylmethyl)pyrazolo[3,4-c]isoquinolin-5-one], the IC50 is less than 1000 nM.
For `Cc1cc(C(C)Nc2ccc(Cl)nc2-c2noc(=O)[nH]2)c2c(c1)c(=O)n(C)c1c2cnn1Cc1ccccn1` (centres unmarked) [Example 276, 3-(6-Chloro-3-((1-(4,7-dimethyl-5-oxo-3-(pyridin-2-ylmethyl)-4,5-dihydro-3H-pyrazolo[3,4-c]isoquinolin-9-yl)ethyl)amino)pyridin-2-yl)-1,2,4-oxadiazol-5(4H)-one], the IC50 was less than 1000 nM.
For `Cc1cc(C(C)Nc2ccc(Cl)nc2-c2ncn(C)n2)c2c(c1)c(=O)n(C)c1c2cnn1C1CCCN(C)C1` (centres unmarked) [Example 277, 9-[1-[[6-Chloro-2-(1-methyl-1,2,4-triazol-3-yl)-3-pyridyl]amino]ethyl]-4,7-dimethyl-3-(1-methyl-3-piperidyl)pyrazolo[3,4-c]isoquinolin-5-one] the value was less than 1000 nM.
